Test results taken from patent US20240285670A1, “THERAPEUTIC TREATMENT OF TUMORS BY BLOCKING THE HEME SYNTHESIS-EXPORT AXIS” (Università degli Studi di Torino, priority 2021, published 2024).

Columns and labels:
[1] = system: FLVCR1a-overexpressing Caco2 cells; experiment: TCA cycle flux in Caco2 cells overexpressing FLVCR1a; assay type: cell-based, human
Procedure: (A) TCA cycle flux in Caco2 cells expressing a scramble shRNA untreated or treated with 25 μM hemin for 2 hours. Moreover, the TCA cycle flux of untreated FLVCR1a-silenced Caco2 cells is reported for comparison. Results are expressed as pmol CO2/h/mg protein. Data represent mean±SEM, n=3. For statistical analyses, an unpaired Student's t-test was used to compare the two matched groups; *=p<0.05, ***=p<0.001. […] Results are expressed as pmol CO2/h/mg protein. Data represent mean±SEM, n=3. For statistical analyses, an unpaired Student's t-test was used; *=p<0.05, **=p<0.01. (C) TCA cycle flux in Caco2 cells overexpressing FLVCR1a (indicated as FLVCR1a+) are compared to cells stably transduced with an empty vector. Moreover, the TCA cycle flux of FLVCR1a-overexpressing Caco2 cells treated with 25 μM hemin or 0.5 mM SA for 2 hours is reported. Results are expressed as pmol CO2/h/mg protein. Data represent mean±SEM, n=3. For statistical analyses, an unpaired Student's t-test was used to compare the two matched groups; *=p<0.05, **=p<0.01. SA, succinylacetone. […]
(§1) The glucose flux through TCA cycle was measured by radiolabeling cells with 2 μCi/ml [6-^14C]-glucose (55 mCi/mmol; PerkinElmer, Waltham, MA, USA, catalog n° NEC045X). […] The amount of glucose transformed into CO2 through the TCA cycle was calculated as described (Riganti et al., 2004) and expressed as pmoles CO2/h/mg cell proteins.

tumor cell = conditions: background art; cited from earlier work
Caco2 cells [2] = experiment: Heme content (fluorescence assay) in Caco2 cells; assay type: cell-based, human; conditions: FLVCR1a-silenced Caco2 cells, 5 mM 5-ALA+0.5 mM SA
Procedure: (A) Heme content in Caco2 cells treated with 5 mM 5-ALA (black bars and white bars) or with 5 mM 5-ALA+0.5 mM SA (light grey outlined bars) for the indicated time points. […] Values are expressed as relative fluorescence intensity. Data represent mean±SEM, n=2. For statistical analyses, a two-way analysis of variance was used, followed by the Bonferroni correction for multiple group comparisons; **=p<0.01, ***=p<0.001. 5-ALA, 5-aminolevulinic acid; SA, succinylacetone. (B) Intracellular 5-ALA levels. […] Values are expressed as peak area/μg proteins. Data represent mean±SEM of n=4 wells pooled from two independent experiments. For statistical analyses, an unpaired Student's t-test was used; **=p<0.01. 5-ALA, 5-aminolevulinic acid. […] Values are expressed as peak area/μg proteins. […] Transcript abundance, normalized to beta-actin mRNA expression, is expressed as a fold increase over a calibrator sample. […] Band intensities were measured by densitometry and normalized to vinculin expression. […]
Intracellular heme concentration was measured using a fluorescence assay, as previously reported (Sinclair et al., 2001). […] Fluorescence (wavelength: excitation 405 nm-emission 660-720 nm) of the resultant protoporphyrin was assessed on a Glomax Multi Detection System (Promega Corporation, Madison WI, USA).
The endogenous protoporphyrin content (measured in parallel unheated samples in oxalic acid) was subtracted. […]

lung tumor LLC cells = experiment: LLC cell viability (CellTiter-Fluor) as readout of proliferation; assay type: cell-based, murine; conditions: 0.5 mM SA at day 0, no medium refresh
Caco2 cells [3] = experiment: TCA cycle flux in Caco2 cells; assay type: cell-based, human; conditions: control (scramble shRNA) Caco2 cells, 25 μM hemin for 2 hours
Description: TCA cycle flux is reported in the centre of the figure and expressed as pmol CO2/h/mg protein. Data represent mean±SEM, n=3. For statistical analyses, an unpaired Student's t-test was used. **=p<0.01. Moreover, TCA cycle enzymes activities are reported in boxes and expressed as mU/mg mitochondrial proteins. Data represent mean±SEM, n=3. For statistical analyses, an unpaired Student's t-test was used; *=p<0.05, ***=p<0.001. […] Results are expressed as pmol CO2/h/mg protein. Data represent mean±SEM, n=3. For statistical analyses, an unpaired Student's t-test was used; *=p<0.05, **=p<0.01.
(A) TCA cycle flux in Caco2 cells expressing a scramble shRNA untreated or treated with 25 μM hemin for 2 hours. Moreover, the TCA cycle flux of untreated FLVCR1a-silenced Caco2 cells is reported for comparison. Results are expressed as pmol CO2/h/mg protein. Data represent mean±SEM, n=3. […] Results are expressed as pmol CO2/h/mg protein. […] Results are expressed as pmol CO2/h/mg protein. […]
as §1

CC(=O)CC(=O)CCC(=O)O [SA, 4-6 Dioxoheptanoic acid]
reduction of the TCA cycle flux in FLVCR1a-overexpressing cells ([1]; 0.5 mM SA for 2 hours): reverted | tumor cell survival and proliferation (tumor cell): reduce tumor cell survival and proliferation | accumulation of de-novo synthesized heme (Caco2 cells [2]): blunted | cell proliferation (cell viability) (lung tumor LLC cells): effects on cell proliferation were similar

Hemin Ferriprotoporphyrin IX chloride [reference compound]
reduction of the TCA cycle flux in FLVCR1a-overexpressing cells ([1]; 25 μM hemin for 2 hours): reverted | TCA cycle flux (Caco2 cells [3]): increased TCA cycle flux
